Experimental data reported in article PMC7023064, “Design, Synthesis, and Evaluation of Novel 2-Methoxyestradiol Derivatives as Apoptotic Inducers through an Intrinsic Apoptosis Pathway” (Biomolecules, 2020).

Tests used:
[1] = test system: normal human liver L-O2 cell lines; test: MTT cytotoxicity assay, L-O2; assay type: cell-based; conditions: mean ± SD of three experiments, No = No inhibition detected
Experimental: (§1) Human breast adenocarcinoma MCF-7 cell lines, human breast cancer MDA-MB-231 cell lines, and the normal human liver L-O2 cell lines were provided by Nanjing KeyGen Biotech Co. Ltd. (Nanjing, China). MCF-7 cells were cultured in a base medium (90% RPMI-1640 and 10% FBS) at 37 °C, 5% CO2 and a saturated humidity atmosphere. MDA-MB-231 cells were cultured in a base medium (90% […] and 10% FBS) at 37 °C, 5% CO2 and a saturated humidity atmosphere. L-O2 cells were cultured in a base medium (90% DMEM and 10% FBS) at 37 °C, 5% CO2 and a saturated humidity atmosphere.
(§2) The cytotoxicity of the tested compounds was determined using the 3-(4,5-dimethyl-2-thiazolyl)-2,5-diphenyl-2-H-tetrazolium bromide (MTT) assay. Cells were seeded in 96-well plates and incubated in a 5% CO2 incubator at 37 °C. When the cells adhered, compounds at different concentrations were added to every well. After incubation for another 72 h, MTT solution (5 mg/mL) was added into each well and cells were incubated for an additional 4 h. The viable cells were stained with MTT and scanned with an electrophotometer at 570 nm. Each concentration treatment was done in triplicate wells. The half maximal inhibitory concentration (IC50) values were estimated by fitting the inhibition data to a dose-dependent curve using a logistic derivative equation.

MCF-7 cells [2] = test: Cell cycle assay (PI staining, flow cytometry); assay type: cell-based, human; conditions: 72 h
Experimental: MCF-7 cells at a density of 5 × 10^5 cells/well were seeded in 6-well plates and incubated at 37 °C in a humidified 5% CO2 incubator for 24 h. Exponentially growing cells were treated with compound 11/12a (0, 5, 10, and 20 μM) for 72 h. Then, the cells were harvested and fixed with 70% precooled ethanol at 4 °C for 12 h. Later, the cells were centrifuged and washed with cold PBS. 100 μL of RNase A was added, and then bathed in water for 30 min at 37 °C. Subsequently, cells were stained by 400 μL of propidium iodide (PI) for 30 min at 4 °C in the dark. Finally, cellular DNA was measured using a flow cytometry (FACS Calibur Becton-Dickinson, San Jose, California, USA).

[3] = test system: MCF-7 and MDA-MB-231 cell lines; test: MTT assay, summary over tested tumor cells; assay type: cell-based, human; conditions: for selectivity towards cancerous cell lines vs healthy cell line: MCF-7 and MDA-MB-231 vs L-O2
Experimental: as §1, §2

MCF-7 cells [4] = test: Hoechst 33258 staining; assay type: cell-based, human; conditions: 0, 5, 10, and 20 μM, 72 h; at higher concentrations
Experimental: The nuclear morphological changes and apoptotic effects induced by compound 11/12a were detected using Hoechst 33,258 staining. Cells grown on a sterile cover slip were treated with 11/12a for 72 h in six-well tissue culture plates. Cells were collected and mounted on a slide, fixed for 30 min with 4% paraformaldehyde, and washed three times with PBS. Then, cells were stained with Hoechst 33,258 (2 mg/mL in PBS) for 10 min at room temperature in the dark. The cells were subsequently washed three times with PBS and observed with a fluorescence microscope.

MCF-7 cells [5] = test: Mitochondrial membrane potential analysis (JC-1, flow cytometry); assay type: cell-based, human; conditions: 72 h, JC-1 (lower right quadrant)
Experimental: MCF-7 cells were incubated in triplicate and treated with compound 11/12a for 72 h. The cells were washed with PBS and stained with JC-1 dye (Keygen, KGA601) under dark conditions according to the manufacturer’s instructions. After incubation, the cells were washed twice with PBS, and the percentage of cells with collapsed or healthy mitochondrial membrane potentials (MMP) was monitored by flow cytometry analysis (FACS Calibur Becton-Dickinson, San Jose, California, USA).

MCF-7 cells [6] = test: Western blotting of apoptosis proteins; assay type: cell-based, human; conditions: 0, 5, 10, and 20 µM, 72 h, β-actin as control
Experimental: After the treatment of MCF-7 cells with compound 11/12a (0, 5, 10, and 20 μM) for 72 h, the total proteins of MCF-7 cells were extracted and their concentrations were balanced to the same level by BCA protein assay reagent (KGP902, KeyGen Biotech Co. Ltd., Nanjing, China), followed by 8 min of protein denaturation with SDS loading buffer at 100 °C. Proteins were separated by sodium dodecyl sulfate-polyacrylamide electrophoresis (SDS-PAGE) and transferred onto polyvinylidene fluoride (PVDF) membranes, which were blocked with 5 mL of 5% fat-free dry milk in 1× Tris-buffered saline (TBS) containing 0.05% Tween 20 for 2 h. Then the membranes were incubated with Apaf-1 (Abcam, no: ab234436), Bax (Abcam, no: ab32503), Bcl-2 (Abcam, no: ab692), Bcl-xL (Abcam, no: ab32370), caspase-3 (Abcam, no: ab184787), caspase-8 (Abcam, no: ab25901), caspase-9 (Abcam, no: ab219590), cytochrome c (Abcam, no: ab133504), and β-actin (Abcam, no: ab8226) antibodies at 4 °C overnight, followed by treatment with secondary horseradish-peroxidase-conjugated anti-rabbitIgG (KeyGen Biotech Co. Ltd., no: KGAA35) for 2 h. Membranes were finally scanned in a ChemiDoc MP Imaging System (Bio-Rad) after 2 min incubation in Clarity Western ECL Substrate (Bio-Rad).

| Compound | IC50 ([1]; Homo sapiens, L02, 72 h) | cells at the G2 phase (MCF-7 cells [2]; 5 μM) | cells at the G2 phase (MCF-7 cells [2]; 10 μM) | cells at the G1 phase (MCF-7 cells [2]; 20 μM) | cells at the G2 phase (MCF-7 cells [2]; 20 μM) | IC50 ([3]; Homo sapiens, MCF-7 and MDA-MB-231, read-out: IC50, anti-proliferative activity against tested tumor cells) | selectivity towards cancerous cell lines vs healthy cell line [3] | Hoechst 33258 fluorescence / cell morphology (MCF-7 cells [4]) | MCF-7 cells with collapsed MMP (MCF-7 cells [5]; 5 μM) | MCF-7 cells with collapsed MMP (MCF-7 cells [5]; 10 μM) | MCF-7 cells with collapsed MMP (MCF-7 cells [5]; 20 μM) | protein expressions of Apaf-1, Bax, caspase-3, caspase-8, caspase-9, and cytochrome c (MCF-7 cells [6]) | protein expressions of Bcl-2 and Bcl-xL (MCF-7 cells [6]) | IC50 ([1]; 72 h) |
| --- | --- | --- | --- | --- | --- | --- | --- | --- | --- | --- | --- | --- | --- | --- |
| COc1cc2c(cc1O)CC[C@@H]1[C@@H]2CC[C@]2(C)[C@@H](OCCCCCCCCn3c(=O)ccn([C@@H]4O[C@H](CO)[C@@H](O)[C@H]4O)c3=O)CC[C@@H]12 [Compound 11, 17 β-[8-(1-β-D-Ribofuranosyluracil-3-yl)-Octyloxy]-2-Methoxy-Estra-1,3,5(10)-Triene-3-ol] | > 100 µM | 8.32% | 15.48% | 42.84% | 24.11% | 3.89 to 16.7 µM | ~7 fold | stronger blue fluorescence | 7.95% | 14.13% | 38.88% | increased in a dose-dependent manner | obviously decreased |  |
| 17 β-[6-(Uracil-3-yl)-Hexyloxy]-2-Methoxy-Estra-1,3,5(10)-Triene-3-ol [Compound 12a] |  | 7.97% | 13.93% | 54.41% | 22.46% |  | about 6 fold | stronger blue fluorescence | 8.78% | 14.56% | 39.75% | increased in a dose-dependent manner | obviously decreased | 69.3 ± 4.37 µM |
